Results from patent publication US9249356B2, “Liquid crystal dye mixture” (PEER+ B.V., priority 2011, dated 2016).

Key:
Assay type in all cases: physicochemical
[1] = Maximum solubility in nematic liquid crystal mixture MLC6653; conditions: nematic LC (MLC6653 named)
From the text: As is apparent from the table above, these dyes suffer from a low order parameter. The Lumogen IR 765 and Lumogen IR788 have poor fluorescence and have no significant solubility (<<0.1 wt %) in commercial liquid crystal mixture MLC6653 from (Merck Darmstadt), a nematic liquid crystal mixture with positive dielectric anisotropy and a positive delta n.

[2] = Peak absorption and order parameter of Lumogen dyes in nematic liquid crystal
From the text: Light fast rylene type dyes are commercially sold by BASF under the name Lumogen.

[3] = Solubility in fluorinated liquid crystal
Light fastness = conditions: in words
From the text: As a third requirement, a high light stability of the dye is desirable. A high light stability allows a long lifetime of the devices in high power conditions such as sunlight, lasers or interior lighting.

[4] = Dichroic ratio in a liquid crystal host
From the text: The purpose of these LC-dye mixtures is to be able to control the absorption or fluorescence emission (or both) of light by the dye. A measure of how well the absorption can be controlled is the dichroic ratio of the dye in the LC mixture. The dichroic ratio is the ratio in absorption for light coming in parallel to the absorption axis of the molecule (A∥) versus light traveling perpendicular to the absorption axis (A—|—):
DR=A∥/A—|—. Another way of expressing the same property is the order parameter (S), which is defined as […]

[5] = Fluorescence / quantum yield
From the text: As a fourth requirement, the fluorescent dichroic dye should have high quantum efficiency. The quantum efficiency is the ratio of emitted photons to absorbed photons of the dye. The higher the quantum efficiency of the dye, the better the dye fluoresces. A good fluorescent dye has a quantum efficiency of at least 0.5, but preferably close to 1.

Row | maximum solubility [1] | Peak absorption ([2]; in nematic LC) | order parameter in nematic LC ([2]; nematic LC) | SMILES | solubility [3] | light fastness (Light fastness) | dichroic ratio [4] | quantum yield ([5]; apolar solvents (cyclohexane)) | fluorescence ([5]; in words)
1 | 0.2 wt % | 577.5 nm | −0.12 | CC(C)c1cccc(C(C)C)c1N1C(=O)c2cc(Oc3ccccc3)c3c4c(Oc5ccccc5)cc5c6c(cc(Oc7ccccc7)c(c7c(Oc8ccccc8)cc(c2c37)C1=O)c64)C(=O)N(c1c(C(C)C)cccc1C(C)C)C5=O [Lumogen F red 305] | – | – | – | – | –
2 | – | – | – | CCCCCCC(CCCCCC)N1C(=O)c2ccc3c4ccc5c6c(ccc(c7ccc(c2c37)C1=O)c64)C(=O)N(c1ccc(-c2ccc3c4ccc6c7c(ccc(c8cccc2c83)c74)C(=O)N(c2c(C(C)C)cccc2C(C)C)C6=O)cc1)C5=O [PBI-PMI, 2-(4-(2-(2,6-diisopropylphenyl)-1,3-dioxo-2,3-dihydro-1H-benzo[5,10]anthra[2,1,9-def]isoquinolin-8-yl)phenyl)-9-(tridecan-7-yl)anthra[2,1,9-def:6,5,10-d′e′f′]diisoquinoline-1,3,8,10(2H,9H)-tetraone] | > 0.2 wt % | comparable to the lightfastness of the single perylene bisimide | 14 | 0.77 | –
3 | – | – | – | CCCCCCCCCCCCC1(CCCCCCCCCCCC)c2cc(N3C(=O)c4ccc5c6ccc7c8c(ccc(c9ccc(c4c59)C3=O)c86)C(=O)N(C(CCCCCC)CCCCCC)C7=O)ccc2-c2ccc(N3C(=O)c4ccc5c6ccc7c8c(ccc(c9ccc(c4c59)C3=O)c86)C(=O)N(C(CCCCCC)CCCCCC)C7=O)cc21 [PFP] | 0.2 wt % | good | 12 | – | good
